target: human SGLT2 (Homo sapiens (Human), UniProt P31639); assay: Inhibitory effects on human SGLT2 activities (14C-AMG uptake, sodium-dependent glucose transport assay); assay type: cell-based; settings: CHO cells stably expressing hSGLT2, 37° C., 2 h, single determinations
In short: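 CHO cells stably expressing hSGLT2 were preincubated 10 min at 37 °C in choline (Na+-free) buffer, then exposed 2 h at 37 °C to compound in Na+ uptake buffer with 8 μM 14C-AMG and 1 mM unlabeled AMG. Radioactivity was scintillation counted; IC50 came from nonlinear regression.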

Chain of human SGLT2 (P31639 whole entry): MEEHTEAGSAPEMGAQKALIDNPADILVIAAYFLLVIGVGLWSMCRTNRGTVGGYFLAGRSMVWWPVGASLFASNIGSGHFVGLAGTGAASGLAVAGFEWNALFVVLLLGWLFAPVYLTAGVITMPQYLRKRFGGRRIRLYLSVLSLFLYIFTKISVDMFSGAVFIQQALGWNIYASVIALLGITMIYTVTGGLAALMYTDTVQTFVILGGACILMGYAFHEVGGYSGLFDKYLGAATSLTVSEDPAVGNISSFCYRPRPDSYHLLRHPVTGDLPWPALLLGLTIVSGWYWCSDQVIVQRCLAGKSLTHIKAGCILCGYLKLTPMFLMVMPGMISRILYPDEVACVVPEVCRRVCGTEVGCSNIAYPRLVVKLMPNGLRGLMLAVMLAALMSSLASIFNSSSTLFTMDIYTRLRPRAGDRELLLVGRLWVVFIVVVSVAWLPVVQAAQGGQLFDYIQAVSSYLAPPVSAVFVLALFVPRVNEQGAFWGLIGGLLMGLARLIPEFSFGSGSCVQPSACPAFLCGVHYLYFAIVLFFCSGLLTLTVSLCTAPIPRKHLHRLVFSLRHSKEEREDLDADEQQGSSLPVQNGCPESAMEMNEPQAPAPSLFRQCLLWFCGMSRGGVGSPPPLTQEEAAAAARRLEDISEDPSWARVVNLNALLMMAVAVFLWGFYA

Compound | IC50 [nM]
OC[C@H]1O[C@@H](c2cc(Cc3ccc(C(F)(F)F)cc3)c(Cl)c3c2OCC3)[C@H](O)[C@@H](O)[C@@H]1O [Example E122, (2S,3R,4R,5S,6R)-2-(4-Chloro-5-(4-(trifluoromethyl)benzyl)-2,3-dihydrobenzofuran-7-yl)-6-(hydroxymethyl)tetrahydro-2H-pyran-3,4,5-triol] | 1.97
OC[C@H]1O[C@@H](c2cc(Cc3ccc(C(F)(F)F)cc3)c(Cl)c3c2CCO3)[C@H](O)[C@@H](O)[C@@H]1O [Example E124, (2S,3R,4R,5S,6R)-2-(7-Chloro-6-(4-(trifluoromethyl)benzyl)-2,3-dihydrobenzofuran-4-yl)-6-(hydroxymethyl)tetrahydro-2H-pyran-3,4,5-triol] | 1.25
COc1ccc(Cc2cc([C@@H]3O[C@H](CO)[C@@H](O)[C@H](O)[C@H]3O)c3c(c2Cl)OC(C)C3)cc1 (stereo partly drawn) [Example E130, (2S,3R,4R,5S,6R)-2-(7-Chloro-6-(4-methoxybenzyl)-2-methyl-2,3-dihydrobenzofuran-4-yl)-6-(hydroxymethyl)tetrahydro-2H-pyran-3,4,5-triol] | 1.78
CCc1ccc(Cc2cc([C@@H]3O[C@H](CO)[C@@H](O)[C@H](O)[C@H]3O)c3c(c2Cl)CC(C)O3)cc1 (stereo partly drawn) [Example E132, (2S,3R,4R,5S,6R)-2-(4-Chloro-5-(4-ethylbenzyl)-2-methyl-2,3-dihydrobenzofuran-7-yl)-6-(hydroxymethyl)tetrahydro-2H-pyran-3,4,5-triol] | 0.706
CC1Cc2c(Cl)c(Cc3ccc(C4CC4)cc3)cc([C@@H]3O[C@H](CO)[C@@H](O)[C@H](O)[C@H]3O)c2O1 (stereo partly drawn) [Example E133, (2S,3R,4R,5S,6R)-2-(4-Chloro-5-(4-cyclopropylbenzyl)-2-methyl-2,3-dihydrobenzofuran-7-yl)-6-(hydroxymethyl)tetrahydro-2H-pyran-3,4,5-triol] | 1.11
CCOc1ccc(Cc2cc([C@@H]3O[C@H](CO)[C@@H](O)[C@H](O)[C@H]3O)c3c(c2Cl)OC(C)C3)cc1 (stereo partly drawn) [Example E135, (2S,3R,4R,5S,6R)-2-(7-Chloro-6-(4-ethoxybenzyl)-2-methyl-2,3-dihydrobenzofuran-4-yl)-6-(hydroxymethyl)tetrahydro-2H-pyran-3,4,5-triol] | 1.65
CCc1ccc(Cc2cc([C@@H]3O[C@H](CO)[C@@H](O)[C@H](O)[C@H]3O)c3c(c2Cl)OC(C)C3)cc1 (stereo partly drawn) [Example E136, (2S,3R,4R,5S,6R)-2-(7-Chloro-6-(4-ethylbenzyl)-2-methyl-2,3-dihydrobenzofuran-4-yl)-6-(hydroxymethyl)tetrahydro-2H-pyran-3,4,5-triol] | 0.835
C=Cc1ccc(Cc2cc([C@@H]3O[C@H](CO)[C@@H](O)[C@H](O)[C@H]3O)c3c(c2Cl)OC(C)C3)cc1 (stereo partly drawn) [Example E137, (2S,3R,4R,5S,6R)-2-(7-Chloro-2-methyl-6-(4-vinylbenzyl)-2,3-dihydrobenzofuran-4-yl)-6-(hydroxymethyl)tetrahydro-2H-pyran-3,4,5-triol] | 1
Cc1ccc(Cc2cc([C@@H]3O[C@H](CO)[C@@H](O)[C@H](O)[C@H]3O)c3c(c2Cl)CCC3)cc1 [Example E139, (2S,3R,4R,5S,6R)-2-(7-Chloro-6-(4-methylbenzyl)-2,3-dihydro-1H-inden-4-yl)-6-(hydroxymethyl)tetrahydro-2H-pyran-3,4,5-triol] | 0.808
COc1ccc(Cc2cc([C@@H]3O[C@H](CO)[C@@H](O)[C@H](O)[C@H]3O)c3c(c2Cl)CC(C)S3)cc1 (stereo partly drawn) [Example E142, (2S,3R,4R,5S,6R)-2-(4-Chloro-5-(4-methoxybenzyl)-2-methyl-2,3-dihydrobenzo[b]thiophen-7-yl)-6-(hydroxymethyl)tetrahydro-2H-pyran-3,4,5-triol] | 1.09
CCOc1ccc(Cc2cc([C@@H]3O[C@H]([S+](C)[O-])[C@@H](O)[C@H](O)[C@H]3O)c3c(c2Cl)CC(C)O3)cc1 (stereo partly drawn) [Example E147, (2S,3R,4R,5S,6R)-2-(4-Chloro-5-(4-ethoxybenzyl)-2-methyl-2,3-dihydrobenzofuran-7-yl)-6-((S)-methylsulfinyl)tetrahydro-2H-pyran-3,4,5-triol] | 5.4
CC1Cc2c([C@@H]3O[C@H](CO)[C@@H](O)[C@H](O)[C@H]3O)cc(Cc3ccc(C(C)C)cc3)c(Cl)c2O1 (stereo partly drawn) [Example E150, (2S,3R,4R,5S,6R)-2-(7-Chloro-6-(4-isopropylbenzyl)-2-methyl-2,3-dihydrobenzofuran-4-yl)-6-(hydroxymethyl)tetrahydro-2H-pyran-3,4,5-triol] | 1.44

The remaining lines, values ahead:

IC50 [nM] | Compound
1.82 | OC[C@H]1O[C@@H](c2cc(Cc3ccc(Cl)cc3)c(Cl)c3c2OCC3)[C@H](O)[C@@H](O)[C@@H]1O [Example E123, (2S,3R,4R,5S,6R)-2-(4-Chloro-5-(4-chlorobenzyl)-2,3-dihydrobenzofuran-7-yl)-6-(hydroxymethyl)tetrahydro-2H-pyran-3,4,5-triol]
0.728 | CCOc1ccc(Cc2cc([C@@H]3O[C@H](C)[C@@H](O)[C@H](O)[C@H]3O)c3c(c2Cl)OCC3)cc1 [Example E125, (2S,3R,4S,5S,6R)-2-(7-Chloro-6-(4-ethoxybenzyl)-2,3-dihydrobenzofuran-4-yl)-6-methyltetrahydro-2H-pyran-3,4,5-triol]
3.21 | CCOc1ccc(Cc2cc([C@@H]3O[C@H](CF)[C@@H](O)[C@H](O)[C@H]3O)c3c(c2Cl)OCC3)cc1 [Example E126, (2S,3R,4R,5S,6S)-2-(7-Chloro-6-(4-ethoxybenzyl)-2,3-dihydrobenzofuran-4-yl)-6-(fluoromethyl)tetrahydro-2H-pyran-3,4,5-triol]
1.35 | CCOc1ccc(Cc2cc([C@@H]3O[C@H](C(C)O)[C@@H](O)[C@H](O)[C@H]3O)c3c(c2Cl)OCC3)cc1 (stereo partly drawn) [Example E127, (2S,3R,4R,5S,6R)-2-(7-Chloro-6-(4-ethoxybenzyl)-2,3-dihydrobenzofuran-4-yl)-6-(1-hydroxyethyl)tetrahydro-2H-pyran-3,4,5-triol]
1.28 | CCOc1ccc(Cc2cc([C@@H]3O[C@H](CO)[C@@H](O)[C@H](O)[C@H]3O)c3c(c2C)OCC3)cc1 [Example E129, (2S,3R,4R,5S,6R)-2-(6-(4-Ethoxybenzyl)-7-methyl-2,3-dihydrobenzofuran-4-yl)-6-(hydroxymethyl)tetrahydro-2H-pyran-3,4,5-triol]
1.02 | COc1ccc(Cc2cc([C@@H]3O[C@H](CO)[C@@H](O)[C@H](O)[C@H]3O)c3c(c2Cl)CC(C)O3)cc1 (stereo partly drawn) [Example E131, (2S,3R,4R,5S,6R)-2-(4-Chloro-5-(4-methoxybenzyl)-2-methyl-2,3-dihydrobenzofuran-7-yl)-6-(hydroxymethyl)tetrahydro-2H-pyran-3,4,5-triol]
0.885 | CCCc1ccc(Cc2cc([C@@H]3O[C@H](CO)[C@@H](O)[C@H](O)[C@H]3O)c3c(c2Cl)CC(C)O3)cc1 (stereo partly drawn) [Example E134, (2S,3R,4R,5S,6R)-2-(4-Chloro-2-methyl-5-(4-propylbenzyl)-2,3-dihydrobenzofuran-7-yl)-6-(hydroxymethyl)tetrahydro-2H-pyran-3,4,5-triol]
1.13 | CC1Cc2c([C@@H]3O[C@H](CO)[C@@H](O)[C@H](O)[C@H]3O)cc(Cc3ccc(C4CC4)cc3)c(Cl)c2O1 (stereo partly drawn) [Example E138, (2S,3R,4R,5S,6R)-2-(7-Chloro-6-(4-cyclopropylbenzyl)-2-methyl-2,3-dihydrobenzofuran-4-yl)-6-(hydroxymethyl)tetrahydro-2H-pyran-3,4,5-triol]
1.34 | CNc1ccc(Cc2cc([C@@H]3O[C@H](CO)[C@@H](O)[C@H](O)[C@H]3O)c3c(c2Cl)CCC3)cc1 [Example E140, (2S,3R,4R,5S,6R)-2-(7-Chloro-6-(4-(methylamino)benzyl)-2,3-dihydro-1H-inden-4-yl)-6-(hydroxymethyl)tetrahydro-2H-pyran-3,4,5-triol 2,2,2-trifluoroacetate]
2.82 | CNc1ccc(Cc2cc([C@@H]3O[C@H](CO)[C@@H](O)[C@H](O)[C@H]3O)c3c(c2Cl)OCC3)cc1 [Example E141, (2S,3R,4R,5S,6R)-2-(7-Chloro-6-(4-(methylamino)benzyl)-2,3-dihydrobenzofuran-4-yl)-6-(hydroxymethyl)tetrahydro-2H-pyran-3,4,5-triol 2,2,2-trifluoroacetate]
1.03 | CCOc1ccc(Cc2cc([C@@H]3O[C@H](CO)[C@@H](O)[C@H](O)[C@H]3O)c3c(c2Cl)CC(C)S3)cc1 (stereo partly drawn) [Example E143, (2S,3R,4R,5S,6R)-2-(4-Chloro-5-(4-ethoxybenzyl)-2-methyl-2,3-dihydrobenzo[b]thiophen-7-yl)-6-(hydroxymethyl)tetrahydro-2H-pyran-3,4,5-triol]
0.976 | CCc1ccc(Cc2cc([C@@H]3O[C@H](CO)[C@@H](O)[C@H](O)[C@H]3O)c3c(c2Cl)CC(C)S3)cc1 (stereo partly drawn) [Example E144, (2S,3R,4R,5S,6R)-2-(4-Chloro-5-(4-ethylbenzyl)-2-methyl-2,3-dihydrobenzo[b]thiophen-7-yl)-6-(hydroxymethyl)tetrahydro-2H-pyran-3,4,5-triol]
0.685 | CCOc1ccc(Cc2cc([C@@H]3O[C@H](SC)[C@@H](O)[C@H](O)[C@H]3O)c3c(c2Cl)CC(C)O3)cc1 (stereo partly drawn) [Example E145, (2S,3R,4R,5S,6R)-2-(4-Chloro-5-(4-ethoxybenzyl)-2-methyl-2,3-dihydrobenzofuran-7-yl)-6-(methylthio)tetrahydro-2H-pyran-3,4,5-triol]
3.45 | CCOc1ccc(Cc2cc([C@@H]3O[C@H](S(C)(=O)=O)[C@@H](O)[C@H](O)[C@H]3O)c3c(c2Cl)CC(C)O3)cc1 (stereo partly drawn) [Example E146, (2S,3R,4R,5S,6R)-2-(4-Chloro-5-(4-ethoxybenzyl)-2-methyl-2,3-dihydrobenzofuran-7-yl)-6-(methylsulfonyl)tetrahydro-2H-pyran-3,4,5-triol]
1.8 | CC1Cc2c(Cl)c(Cc3ccc(C(C)C)cc3)cc([C@@H]3O[C@H](CO)[C@@H](O)[C@H](O)[C@H]3O)c2O1 (stereo partly drawn) [Example E149, (2S,3R,4R,5S,6R)-2-(4-Chloro-5-(4-isopropylbenzyl)-2-methyl-2,3-dihydrobenzofuran-7-yl)-6-(hydroxymethyl)tetrahydro-2H-pyran-3,4,5-triol]

Reference: patent publication US9034921B2, “Diphenylmethane derivatives as SGLT2 inhibitors” (GREEN CROSS CORPORATION, priority 2011, dated 2015)
